Literature values, collected in patent publication US9227958B2, “Amorphous and crystalline forms of aprepitant and processes for the preparation thereof” (Glenmark Pharmaceuticals Limited, priority 2006, dated 2016).

Tests used:
Conditions in all cases: stated in words, background
[1] = biological target: T1, serotonin (5-HT3) receptors (Homo sapiens, UniProt P46098)
T1 sequence (P46098 24-478): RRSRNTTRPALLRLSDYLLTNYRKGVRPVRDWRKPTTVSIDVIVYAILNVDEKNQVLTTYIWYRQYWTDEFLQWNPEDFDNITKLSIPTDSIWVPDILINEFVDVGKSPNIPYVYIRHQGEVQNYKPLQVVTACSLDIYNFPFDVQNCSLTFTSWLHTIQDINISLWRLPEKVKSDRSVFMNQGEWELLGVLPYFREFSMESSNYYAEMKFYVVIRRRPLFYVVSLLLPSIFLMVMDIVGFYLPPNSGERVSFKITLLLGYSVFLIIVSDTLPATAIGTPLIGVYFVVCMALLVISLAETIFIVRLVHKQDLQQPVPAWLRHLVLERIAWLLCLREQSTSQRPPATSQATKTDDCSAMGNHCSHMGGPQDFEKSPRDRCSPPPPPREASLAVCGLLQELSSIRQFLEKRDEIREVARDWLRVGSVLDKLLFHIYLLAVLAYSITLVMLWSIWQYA

[2] = biological target: human substance P/neurokinin 1 (NK1) receptors (Homo sapiens, UniProt P25103)
Sequence of human substance P/neurokinin 1 (NK1) receptors (P25103 whole entry): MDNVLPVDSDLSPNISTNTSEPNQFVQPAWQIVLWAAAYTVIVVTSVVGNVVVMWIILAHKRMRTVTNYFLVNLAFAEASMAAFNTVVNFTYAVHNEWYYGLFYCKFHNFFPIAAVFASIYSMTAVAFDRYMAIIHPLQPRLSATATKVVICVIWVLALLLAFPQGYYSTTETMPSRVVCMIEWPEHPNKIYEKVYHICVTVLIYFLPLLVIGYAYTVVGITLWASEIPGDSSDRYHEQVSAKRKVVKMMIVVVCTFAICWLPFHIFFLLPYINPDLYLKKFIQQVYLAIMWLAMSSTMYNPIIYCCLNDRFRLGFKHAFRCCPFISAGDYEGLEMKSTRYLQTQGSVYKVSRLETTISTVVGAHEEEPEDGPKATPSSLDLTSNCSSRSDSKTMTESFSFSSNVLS

[3] = tested on: dopamine receptors
[4] = tested on: corticosteroid receptors

C[C@@H](O[C@H]1OCCN(Cc2n[nH]c(=O)[nH]2)[C@H]1c1ccc(F)cc1)c1cc(C(F)(F)F)cc(C(F)(F)F)c1 [Aprepitant]
affinity for serotonin (5-HT3) receptors [1]: little or no affinity
affinity / antagonism at human substance P/neurokinin 1 (NK1) receptors [2]: selective high-affinity antagonist
affinity for dopamine receptors [3]: little or no affinity
affinity for corticosteroid receptors [4]: little or no affinity
